# Assay results: patent US6355799B1, “Substituted benzene compounds, process for their preparation, and herbicidal and defoliant compositions containing them” (ISK Americas Incorporated, priority 1997, dated 2002)
# Key:
# Assay type in all cases: in vivo
# [1] = test system: field corn (Zea mays L., var. Dekalb 535, CORN); experiment: Pre-emerge test, crop safety; details: pre-emerge, 14 days after application, rating scale 0-100
# Method in brief: (§1)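 Compounds in acetone were track-sprayed at 187 l/ha, 15–1000 g ai/ha, onto sandy loam pots. Pre-emerge seeds were sown one day before spraying, with surface watering afterwards. Post-emerge plants were at the 2–3 leaf stage and sprayed with 0.25% v/v non-ionic surfactant. Injury was rated 0–100 at 14 days.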
# [2] = test system: upland rice (Oryza sp., var. Tebonnet, RICE); experiment: Pre-emerge test, crop safety; details: pre-emerge, 14 days after application, rating scale 0-100
# Method in brief: as §1
# [3] = test system: redroot pigweed (Amaranthus retroflexus, AMARE); experiment: Pre-emerge test, greenhouse herbicide activity screening; details: pre-emerge, 14 days after application, rating scale 0-100
# Method in brief: (§2)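 Plants grown in 10 cm pots of sandy loam mix received acetone-dissolved compounds through a moving flat-fan nozzle. Doses ranged from 15 to 1000 g ai/ha. Pre-emerge pots were seeded one day earlier, post-emerge pots 8–21 days earlier. Fourteen days on, each pot was graded 0–100 for damage.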
# [4] = test system: velvetleaf (Abutilon theophrasti, ABUTH); experiment: as above; details: pre-emerge, 14 days after application, rating scale 0-100
# Method in brief: (§3)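 Fourteen days after spraying, crop and weed injury was graded visually from 0, no effect, to 100, every plant dead. Test substances were dissolved in acetone and applied at 15–1000 g ai/ha with a flat-fan nozzle. Application was either pre-emergence, one day after sowing, or post-emergence at the 2–3 leaf stage.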
# [5] = test system: large crabgrass (Digitaria sanguinalis, DIGSA); experiment: as above; details: pre-emerge, 14 days after application, rating scale 0-100
# Method in brief: as §3
# [6] = test system: sicklepod (Cassia obtusifolia, CASOB); experiment: as above; details: pre-emerge, 14 days after application, rating scale 0-100
# Method in brief: as §3
# [7] = test system: green foxtail (Setaria viridis, SETVI); experiment: as above; details: pre-emerge, 14 days after application, rating scale 0-100
# Method in brief: as §3
# [8] = test system: johnsongrass (Sorghum halepense, SORHA); experiment: as above; details: pre-emerge, 14 days after application, rating scale 0-100
# Method in brief: as §3
# [9] = test system: lambsquarters (Chenopodium album, CHEAL); experiment: as above; details: pre-emerge, 14 days after application, rating scale 0-100
# Method in brief: as §3
# [10] = test system: ivyleaf morningglory (Ipomoea hederacea, IPOHE); experiment: as above; details: pre-emerge, 14 days after application, rating scale 0-100
# Method in brief: as §3
# [11] = test system: barnyardgrass (Echinochloa crus-galli, ECHCG); experiment: as above; details: pre-emerge, 14 days after application, rating scale 0-100
# Method in brief: as §3
# [12] = test system: velvetleaf (Abutilon theophrasti, ABUTH); experiment: Post-emerge test, greenhouse herbicide activity screening; details: post-emerge, 14 days after application, rating scale 0-100
# Method in brief: as §2
# [13] = test system: large crabgrass (Digitaria sanguinalis, DIGSA); experiment: as above; details: post-emerge, 14 days after application, rating scale 0-100
# Method in brief: as §2
# [14] = test system: sicklepod (Cassia obtusifolia, CASOB); experiment: as above; details: post-emerge, 14 days after application, rating scale 0-100
# Method in brief: as §2
# [15] = test system: green foxtail (Setaria viridis, SETVI); experiment: as above; details: post-emerge, 14 days after application, rating scale 0-100
# Method in brief: as §2
# [16] = test system: johnsongrass (Sorghum halepense, SORHA); experiment: as above; details: post-emerge, 14 days after application, rating scale 0-100
# Method in brief: as §2
# [17] = test system: lambsquarters (Chenopodium album, CHEAL); experiment: as above; details: post-emerge, 14 days after application, rating scale 0-100
# Method in brief: as §2
# [18] = test system: common ragweed (Ambrosia artemisizfolia L., AMBEL); experiment: as above; details: post-emerge, 14 days after application, rating scale 0-100
# Method in brief: as §2
# [19] = test system: redroot pigweed (Amaranthus retroflexus, AMARE); experiment: as above; details: post-emerge, 14 days after application
# Method in brief: as §2
# [20] = test system: ivyleaf morningglory (Ipomoea hederacea, IPOHE); experiment: as above; details: post-emerge, 14 days after application, rating scale 0-100
# Method in brief: as §2
# [21] = test system: barnyardgrass (Echinochloa crus-galli, ECHCG); experiment: as above; details: post-emerge, 14 days after application, rating scale 0-100
# Method in brief: as §2
# [22] = test system: field corn (Zea mays L., var. Dekalb 535, CORN); experiment: Post-emerge test, crop safety; details: post-emerge, 14 days after application, rating scale 0-100
# Method in brief: as §3
# [23] = test system: upland rice (Oryza sp., var. Tebonnet, RICE); experiment: Post-emerge test, crop safety; details: post-emerge, 14 days after application, rating scale 0-100
# Method in brief: as §3
smiles,measurement,setting,value
CCOC(=O)C(Cl)Cc1c(OC)c(Cl)cc(F)c1-c1nn(C)c(C(F)(F)F)c1Cl (stereo not shown) [14-56],phytotoxicity rating CORN,[1]; 63 g ai/ha,0
same,phytotoxicity rating CORN,[1]; 250 g ai/ha,0
same,phytotoxicity rating RICE,[2]; 63 g ai/ha,10
same,phytotoxicity rating RICE,[2]; 250 g ai/ha,10
same,phytotoxicity rating AMARE,[3]; 63 g ai/ha,100
same,phytotoxicity rating AMARE,[3]; 250 g ai/ha,100
same,phytotoxicity rating ABUTH,[4]; 63 g ai/ha,30
same,phytotoxicity rating ABUTH,[4]; 250 g ai/ha,60
same,phytotoxicity rating DIGSA,[5]; 63 g ai/ha,30
same,phytotoxicity rating DIGSA,[5]; 250 g ai/ha,40
same,phytotoxicity rating CASOB,[6]; 63 g ai/ha,0
same,phytotoxicity rating CASOB,[6]; 250 g ai/ha,10
same,phytotoxicity rating SETVI,[7]; 63 g ai/ha,20
same,phytotoxicity rating SETVI,[7]; 250 g ai/ha,70
same,phytotoxicity rating SORHA,[8]; 63 g ai/ha,0
same,phytotoxicity rating SORHA,[8]; 250 g ai/ha,30
same,phytotoxicity rating CHEAL,[9]; 63 g ai/ha,80
same,phytotoxicity rating CHEAL,[9]; 250 g ai/ha,100
same,phytotoxicity rating IPOHE,[10]; 63 g ai/ha,0
same,phytotoxicity rating IPOHE,[10]; 250 g ai/ha,0
same,phytotoxicity rating ECHCG,[11]; 63 g ai/ha,0
same,phytotoxicity rating ECHCG,[11]; 250 g ai/ha,0
same,Post-emerge Herbicidal Activity ABUTH (phytotoxicity rating),[12]; 63 g ai/ha,70
same,Post-emerge Herbicidal Activity ABUTH (phytotoxicity rating),[12]; 250 g ai/ha,100
same,Post-emerge Herbicidal Activity DIGSA (phytotoxicity rating),[13]; 63 g ai/ha,10
same,Post-emerge Herbicidal Activity DIGSA (phytotoxicity rating),[13]; 250 g ai/ha,50
same,Post-emerge Herbicidal Activity CASOB (phytotoxicity rating),[14]; 63 g ai/ha,30
same,Post-emerge Herbicidal Activity CASOB (phytotoxicity rating),[14]; 250 g ai/ha,40
same,Post-emerge Herbicidal Activity SETVI (phytotoxicity rating),[15]; 63 g ai/ha,30
same,Post-emerge Herbicidal Activity SETVI (phytotoxicity rating),[15]; 250 g ai/ha,70
same,Post-emerge Herbicidal Activity SORHA (phytotoxicity rating),[16]; 63 g ai/ha,30
same,Post-emerge Herbicidal Activity SORHA (phytotoxicity rating),[16]; 250 g ai/ha,70
same,Post-emerge Herbicidal Activity CHEAL (phytotoxicity rating),[17]; 63 g ai/ha,99
same,Post-emerge Herbicidal Activity CHEAL (phytotoxicity rating),[17]; 250 g ai/ha,100
same,Post-emerge Herbicidal Activity AMBEL (phytotoxicity rating),[18]; 63 g ai/ha,90
same,Post-emerge Herbicidal Activity AMBEL (phytotoxicity rating),[18]; 250 g ai/ha,80
same,Post-emerge Herbicidal Activity AMARE (phytotoxicity rating),"[19]; 63 g ai/ha, rating scale 0-100 (0 no damage, 100 complete death)",100
same,Post-emerge Herbicidal Activity AMARE (phytotoxicity rating),"[19]; 250 g ai/ha, rating scale 0-100",100
same,Post-emerge Herbicidal Activity IPOHE (phytotoxicity rating),[20]; 63 g ai/ha,100
same,Post-emerge Herbicidal Activity IPOHE (phytotoxicity rating),[20]; 250 g ai/ha,100
same,Post-emerge Herbicidal Activity ECHCG (phytotoxicity rating),[21]; 63 g ai/ha,20
same,Post-emerge Herbicidal Activity ECHCG (phytotoxicity rating),[21]; 250 g ai/ha,80
same,Post-emerge Herbicidal Activity CORN (crop damage rating),[22]; 63 g ai/ha,10
same,Post-emerge Herbicidal Activity CORN (crop damage rating),[22]; 250 g ai/ha,30
same,Post-emerge Herbicidal Activity RICE (crop damage rating),[23]; 63 g ai/ha,0
same,Post-emerge Herbicidal Activity RICE (crop damage rating),[23]; 250 g ai/ha,25
